Measurements: US20080280954A1, “Method of Improving Wakefulness” (VANDA PHARMACEUTICALS, INC, priority 2005, published 2008)
Like-named read-outs stand apart in the source and are kept apart here.

Assays:
[1] = system: sleep-wakefulness cycle in rats with lesions of the nucleus basalis of Meynert (NBM) and locus coeruleus (LC)
Description: In a second set of experiment, oral actions of Compound A were evaluated in the sleep-wakefulness cycle in rats with lesions of the nucleus basalis of Meynert (NBM) and locus coeruleus (LC). For this purpose the salt form multifumarate (mfu) was used.
Male rats were used. They were anesthetized with pentobarbital (50 mg/kg i.p.) and positioned in a stereotaxic apparatus with the upper incisor bar set 5 mm (locus coeruleus, LC) or 3.3 mm (Nucleus basalis of Meynert, NBM) below the interaural line. The lesions were carried out with a radio frequency lesion generator at 60° C. in 10 sec. A corresponding group of sham lesioned rats was carried out. The animals were individually kept in single cage during 6 months after the lesions. Five months after lesion, cortical electrodes were implanted. The animals were caged in a room, maintained at a constant temperature of 22° C. and artificially lighted for 12 hours daily. Before beginning of the experiment, the animals were given a 1 day period of acclimatization in the recording cages. These were tall plastic cylinders within the animals had complete freedom of movement even when the recording cables were attached. ECOG recordings were made continuously during 22-hours period/day, 15 min after the installation of the animal or 15 min after drug administration.
Four groups of animals were studied (A1-4), and statistical analysis (T-test, p<0.05) was performed between the different groups.
A1: 5 lesioned animals, which had received 35 days after lesion 3 mg/kg p.o. of
Compound A during 5 days. Implementation of electrodes 5 months later.
Recording of ECOG on the 22d and 23d days after implantation.
A2: Same as A1 but treated with vehicle instead of Compound A.
A3: S Same as A1 but with Sham rats instead of lesioned animals.
A4: Same as A3 but treated with vehicle instead of Compound A.

[2] = system: sleep-wakefulness cycle in rats
Description: In a first set of experiments, the oral (p.o.) and subcutaneous (s.c.) actions of Compound A were evaluated in the sleep-wakefulness cycle in rats. For this purpose the salt forms multifumarate (mfu) or fumarate (fu) were used.
The experiments were carried out in nonanesthetized unrestrained male Wistar rats prepared with chronically implanted electrodes for the recording of the electrocorticogram (ECoG). The animals were caged in a room, maintained at a constant temperature of 22° C. and artificially lighted for 12 hours daily. Before beginning of the experiment, the animals were given a 1 to 3 day period of acclimatization in the recording cages and had complete freedom of movement even when the recording cables were attached. The ECOG recordings were made continuously during 22 to 23-hours period, 15 min after drug administration. Each animal served as its own control. In one experiment, recordings of EcoG were also obtained after administration of distilled water (vehicle used with Compound A) for comparison with no administration, or administration of Compound A.

[3] = 3 mg/kg p.o. (mfu) during 5 days, 35 days after lesion, all recording periods
[4] = 10 mg/kg p.o., 7-11 hours after administration
[5] = 30 mg/kg p.o., first 4 hours of recording

## Cc1nccn1Cc1ccccn1 [Compound A, [2-(2-methylimidazol-1-yl)methyl]pyridine]
[1]; [3]
  lesion-induced decrease of classical sleep: partly prevented
  lesion-induced increase of wakefulness: partly prevented
[1]; 3 mg/kg p.o. (mfu) during 5 days, 35 days after lesion, recording more than 5 months later, all recording periods
  alterations of the sleep-wakefulness cycle due to the lesions: important reduction
[1]; several months after last administration
  nycthemeral cycle abnormalities induced by simultaneous LC+NBM lesions: reduce
[2]; 1 mg/kg s.c., first 2 hours
  REM sleep duration: reduced
[2]; 1 mg/kg s.c., first 4 hours
  wakefulness: enhanced
[2]; 3 mg/kg p.o.
  slow-wave sleep (SWS) sleep onset: significantly delayed
[2]; 3 mg/kg p.o., between 0-4 and 7-11 hours
  active waking: tended to be increased
[2]; 3 mg/kg p.o., first 4 hours
  REM sleep duration: reduced
  classical sleep: reduced
  wakefulness: increase
[2]; 3 mg/kg p.o., last recording interval 18.75-23 hours
  active waking: significantly increased
[2]; 10 mg/kg p.o.
  REM sleep onset: strongly delayed
  SWS onset: tended to also delay
[2]; 10 mg/kg p.o., 0-4 hours after administration
  active waking: significantly increased
[2]; [4]
  REM sleep: tended to be increased
  SWS duration: decreased
  waking time: significantly increased
[2]; 10 mg/kg p.o., during 3 hours
  classical sleep: decreased
[2]; 10 mg/kg p.o., first 6 hours
  waking time: tended to increase
[2]; 10 mg/kg p.o., for several hours
  REM sleep duration: significantly reduced
[2]; 30 mg/kg p.o.
  REM sleep onset: strongly delayed
  SWS onset: strongly delayed
  time the decrease of REM sleep lasted: about 11 hours
  time the increase of wakefulness lasted: about 9 hours
[2]; 30 mg/kg p.o., 4-7 hours after administration
  REM sleep duration: decreased
[2]; [5]
  REM sleep duration: decreased
  SWS duration: decreased
  waking time: increased
[2]; 3, 10 and 30 mg/kg (mfu) p.o., 3 and 10 mg/kg (fu) p.o., 1, 3 and 10 mg/kg (mfu) s.c., dose dependent
  changes in the rat nycthemeral rhythm: significant changes
[2]; 3 and 10 mg/kg s.c.
  effects on sleep-wakefulness cycle compared with oral administration: nearly the same effects as by oral administration
[2]; action quite similar by s.c. and p.o. administration
  effect availability (s.c. versus p.o. action): good
[2]; fu salt form, 3 and 10 mg/kg p.o.
  effects on the sleep wakefulness cycle compared with the mfu form: same effects
